Test results as given in patent US8952024B2, “Herbicidal pyrimidone derivatives” (E I du Pont de Nemours and Company, priority 2009, dated 2015).

Experiments:
Type in all cases: in vivo
[1] = tested on: umbrella sedge (Cyperus difformis); experiment: Test B flooded paddy test; conditions: for Plant response rating, Flood, Sedge, Umbrella: 250 g ai/ha, flooded paddy test, visual rating on 0 to 100 scale (0 no effect, 100 complete control) after 13 to 15 days; for Plant response rating, Sedge, Umbrella: Flood (flooded paddy test), 13 to 15 days
Procedure, shortened: (§1)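 Seedlings reaching 2 leaves are flooded 3 cm deep; test material is delivered to that water, which stays at the same depth. Plants remain in a greenhouse 13–15 days and are then scored by eye versus controls from 0 to 100.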

[2] = tested on: ducksalad (Heteranthera limosa); experiment: Test B flooded paddy test; conditions: for Plant response rating, Flood, Ducksalad: 250 g ai/ha, flooded paddy test, visual rating on 0 to 100 scale (0 no effect, 100 complete control) after 13 to 15 days; for Plant response rating, Ducksalad: Flood (flooded paddy test), 13 to 15 days
Procedure, shortened: as §1

rice (Oryza sativa) = experiment: Test B flooded paddy test; conditions: for Plant response rating, Flood, Rice: 250 g ai/ha, flooded paddy test, visual rating on 0 to 100 scale (0 no effect, 100 complete control) after 13 to 15 days; for Plant response rating, Rice: Flood (flooded paddy test), 13 to 15 days
Procedure, shortened: as §1

[3] = tested on: barnyardgrass (Echinochloa crus-galli); experiment: Test B flooded paddy test; conditions: for Plant response rating, Flood, Barnyardgrass: 250 g ai/ha, flooded paddy test, visual rating on 0 to 100 scale (0 no effect, 100 complete control) after 13 to 15 days; for Plant response rating, Barnyardgrass: Flood (flooded paddy test), 13 to 15 days
Procedure, shortened: as §1

[4] = tested on: wheat (Triticum aestivum); experiment: Test A pre-/postemergence plant response
Procedure, shortened: (§2)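 Both pre- and postemergence treatments are applied simultaneously, using chemicals formulated in a non-phytotoxic solvent mixture with surfactant. Postemergence plants are 2–10 cm high with one to two leaves. After approximately ten days in a greenhouse, injury is scored visually from 0 (none) to 100 (complete control) relative to untreated plants.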

corn (Zea mays) = experiment: Test A pre-/postemergence plant response
Procedure, shortened: as §2

[5] = tested on: giant foxtail (Setaria faberii); experiment: Test A pre-/postemergence plant response
Procedure, shortened: as §2

[6] = tested on: large crabgrass (Digitaria sanguinalis); experiment: Test A pre-/postemergence plant response
Procedure, shortened: as §2

[7] = tested on: barnyardgrass (Echinochloa crus-galli); experiment: Test A pre-/postemergence plant response
Procedure, shortened: as §2

[8] = tested on: morningglory (Ipomoea spp.); experiment: Test A pre-/postemergence plant response
Procedure, shortened: as §2

[9] = tested on: velvetleaf (Abutilon theophrasti); experiment: Test A pre-/postemergence plant response
Procedure, shortened: as §2

[10] = tested on: pigweed (Amaranthus retroflexus); experiment: Test A pre-/postemergence plant response
Procedure, shortened: as §2

[11] = 31 g ai/ha, scale of 0 to 100 where 0 is no effect and 100 is complete control
[12] = 62 g ai/ha, scale 0 to 100, 0 is no effect, 100 is complete control
[13] = 125 g ai/ha, scale 0 to 100, 0 is no effect, 100 is complete control
[14] = Postemergence, 125 g ai/ha, visual injury, 0 to 100 scale (0 no effect, 100 complete control), approx. ten days
[15] = Postemergence, 500 g ai/ha, 0 to 100 scale, 0 = no effect, 100 = complete control, approx. ten days
[16] = Preemergence, 125 g ai/ha, 0 to 100 scale, 0 = no effect, 100 = complete control
[17] = Preemergence, 500 g ai/ha, visual injury, 0 to 100 scale (0 no effect, 100 complete control), approx. ten days

## 5-[(1-ethyl-5-hydroxy-1H-pyrazol-4-yl)carbonyl]-2-phenyl-3-(phenylmethyl)-4(3H)-pyrimidinone [Compound 20]
[1]
  Plant response rating, Flood, Sedge, Umbrella: 60
[1]; [11]
  Plant response rating, Sedge, Umbrella: 40
[1]; [12]
  Plant response rating, Sedge, Umbrella: 50
[1]; [13]
  Plant response rating, Sedge, Umbrella: 60
[2]
  Plant response rating, Flood, Ducksalad: 70
[2]; [11]
  Plant response rating, Ducksalad: 0
[2]; [12]
  Plant response rating, Ducksalad: 0
[2]; [13]
  Plant response rating, Ducksalad: 70
Rice (Oryza sativa)
  Plant response rating, Flood, Rice: 0
Rice (Oryza sativa); [11]
  Plant response rating, Rice: 0
Rice (Oryza sativa); [12]
  Plant response rating, Rice: 0
Rice (Oryza sativa); [13]
  Plant response rating, Rice: 0
[3]
  Plant response rating, Flood, Barnyardgrass: 0
[3]; [11]
  Plant response rating, Barnyardgrass: 0
[3]; [12]
  Plant response rating, Barnyardgrass: 0
[3]; [13]
  Plant response rating, Barnyardgrass: 0
[4]; [14]
  Wheat plant response rating: 0
[4]; [15]
  Plant response rating, Wheat: 10
[4]; [16]
  Plant response rating, Wheat: 0
[4]; [17]
  Plant response rating, Wheat: 0
Corn (Zea mays); [14]
  Corn plant response rating: 0
Corn (Zea mays); [15]
  Plant response rating, Corn: 10
Corn (Zea mays); [16]
  Plant response rating, Corn: 0
Corn (Zea mays); [17]
  Plant response rating, Corn: 0
[5]; [14]
  Foxtail, Giant plant response rating: 30
[5]; [15]
  Plant response rating, Foxtail, Giant: 60
[5]; [16]
  Plant response rating, Foxtail, Giant: 0
[5]; [17]
  Plant response rating, Foxtail, Giant: 10
[6]; [14]
  Crabgrass, Large plant response rating: 90
[6]; [15]
  Plant response rating, Crabgrass, Large: 90
[6]; [16]
  Plant response rating, Crabgrass, Large: 50
[6]; [17]
  Plant response rating, Crabgrass, Large: 80
[7]; [14]
  Barnyardgrass plant response rating: 50
[7]; [15]
  Plant response rating, Barnyardgrass: 90
[7]; [16]
  Plant response rating, Barnyardgrass: 30
[7]; [17]
  Plant response rating, Barnyardgrass: 60
[8]; [14]
  Morningglory plant response rating: 80
[8]; [15]
  Plant response rating, Morningglory: 90
[8]; [16]
  Plant response rating, Morningglory: 0
[8]; [17]
  Plant response rating, Morningglory: 100
[9]; [14]
  Velvetleaf plant response rating: 100
[9]; [15]
  Plant response rating, Velvetleaf: 100
[9]; [16]
  Plant response rating, Velvetleaf: 80
[9]; [17]
  Plant response rating, Velvetleaf: 90
[10]; [14]
  Pigweed plant response rating: 100
[10]; [15]
  Plant response rating, Pigweed: 100
[10]; [16]
  Plant response rating, Pigweed: 80
[10]; [17]
  Plant response rating, Pigweed: 100

## 5-[(2-hydroxy-6-oxo-1-cyclohexen-1-yl)carbonyl]-3-(2-methoxyethyl)-2-(3-thienyl)-4(3H)-pyrimidinone [Compound 97]
[1]
  Plant response rating, Flood, Sedge, Umbrella: 55
[1]; [11]
  Plant response rating, Sedge, Umbrella: 0
[1]; [12]
  Plant response rating, Sedge, Umbrella: 40
[1]; [13]
  Plant response rating, Sedge, Umbrella: 55
[2]
  Plant response rating, Flood, Ducksalad: 80
[2]; [11]
  Plant response rating, Ducksalad: 0
[2]; [12]
  Plant response rating, Ducksalad: 20
[2]; [13]
  Plant response rating, Ducksalad: 75
Rice (Oryza sativa)
  Plant response rating, Flood, Rice: 0
Rice (Oryza sativa); [11]
  Plant response rating, Rice: 0
Rice (Oryza sativa); [12]
  Plant response rating, Rice: 0
Rice (Oryza sativa); [13]
  Plant response rating, Rice: 0
[3]
  Plant response rating, Flood, Barnyardgrass: 0
[3]; [11]
  Plant response rating, Barnyardgrass: 0
[3]; [12]
  Plant response rating, Barnyardgrass: 0
[3]; [13]
  Plant response rating, Barnyardgrass: 0
[4]; [14]
  Wheat plant response rating: 40
[4]; [15]
  Plant response rating, Wheat: 60
[4]; [16]
  Plant response rating, Wheat: 0
[4]; [17]
  Plant response rating, Wheat: 50
Corn (Zea mays); [14]
  Corn plant response rating: 30
Corn (Zea mays); [15]
  Plant response rating, Corn: 90
Corn (Zea mays); [16]
  Plant response rating, Corn: 0
Corn (Zea mays); [17]
  Plant response rating, Corn: 0
[5]; [14]
  Foxtail, Giant plant response rating: 90
[5]; [15]
  Plant response rating, Foxtail, Giant: 100
[5]; [16]
  Plant response rating, Foxtail, Giant: 70
[5]; [17]
  Plant response rating, Foxtail, Giant: 100
[6]; [14]
  Crabgrass, Large plant response rating: 90
[6]; [15]
  Plant response rating, Crabgrass, Large: 100
[6]; [16]
  Plant response rating, Crabgrass, Large: 90
[6]; [17]
  Plant response rating, Crabgrass, Large: 100
[7]; [14]
  Barnyardgrass plant response rating: 90
[7]; [15]
  Plant response rating, Barnyardgrass: 90
[7]; [16]
  Plant response rating, Barnyardgrass: 30
[7]; [17]
  Plant response rating, Barnyardgrass: 90
[8]; [14]
  Morningglory plant response rating: 100
[8]; [15]
  Plant response rating, Morningglory: 100
[8]; [16]
  Plant response rating, Morningglory: 10
[8]; [17]
  Plant response rating, Morningglory: 90
[9]; [14]
  Velvetleaf plant response rating: 100
[9]; [15]
  Plant response rating, Velvetleaf: 100
[9]; [16]
  Plant response rating, Velvetleaf: 90
[9]; [17]
  Plant response rating, Velvetleaf: 100
[10]; [14]
  Pigweed plant response rating: 100
[10]; [15]
  Plant response rating, Pigweed: 100
[10]; [16]
  Plant response rating, Pigweed: 100
[10]; [17]
  Plant response rating, Pigweed: 100
